Measured values from ChEMBL document CHEMBL2429856, “Benzazepinones and benzoxazepinones as antagonists of inhibitor of apoptosis proteins (IAPs) selective for the second baculovirus IAP repeat (BIR2) domain” (J Med Chem, 2013).

Assays:
[1] = biological target: T1, E3 ubiquitin-protein ligase XIAP (Homo sapiens, UniProt P98170)
[2] = system: Plasma; assay: In vivo metabolic stability in rat plasma assessed as hydrolysis of the alanine amide at 4 mg/kg, iv; format: ADME, organism-based; parameters: dose 4 mg/kg, route intravenous
[3] = Clearance in rat at 2 mg/kg, iv; format: ADME, organism-based; parameters: dose 2 mg/kg, route intravenous; settings: in vivo
[4] = In vivo metabolic stability in rat urine assessed as hydrolysis of the alanine amide at 4 mg/kg, iv; format: ADME, organism-based; parameters: dose 4 mg/kg, route intravenous
[5] = Metabolic stability in rat blood assessed as compound remaining at 1 uM after 4 hrs by LC-MS/MS analysis; format: ADME, tissue-based; settings: read-out: Stability
[6] = biological target: T2, Baculoviral IAP repeat-containing protein 2 (Homo sapiens, UniProt Q13490); assay: Inhibition of His-thrombin-TEV-tagged cIAP1 BIR3 domain (260 to 352) (unknown origin) after 1 hr by TR-FRET assay
T2 sequence (Q13490 whole entry, the tested form may be a part): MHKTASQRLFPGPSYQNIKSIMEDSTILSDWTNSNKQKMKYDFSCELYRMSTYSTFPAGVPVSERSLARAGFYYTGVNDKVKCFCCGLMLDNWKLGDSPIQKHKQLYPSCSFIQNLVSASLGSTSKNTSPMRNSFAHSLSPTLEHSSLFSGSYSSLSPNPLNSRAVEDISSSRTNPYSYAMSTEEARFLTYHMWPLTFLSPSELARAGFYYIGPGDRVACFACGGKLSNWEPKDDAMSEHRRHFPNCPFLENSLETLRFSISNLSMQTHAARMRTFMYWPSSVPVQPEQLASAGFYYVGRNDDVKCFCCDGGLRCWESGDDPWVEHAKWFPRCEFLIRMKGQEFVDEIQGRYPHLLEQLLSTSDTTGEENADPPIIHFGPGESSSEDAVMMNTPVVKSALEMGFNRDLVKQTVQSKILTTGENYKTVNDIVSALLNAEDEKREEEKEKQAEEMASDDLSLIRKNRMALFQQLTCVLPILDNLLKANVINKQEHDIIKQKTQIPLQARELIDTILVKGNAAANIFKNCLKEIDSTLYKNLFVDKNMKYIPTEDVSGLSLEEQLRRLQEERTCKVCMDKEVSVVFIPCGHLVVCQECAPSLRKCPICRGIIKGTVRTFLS

[7] = Clearance in mouse at 1 mg/kg, iv; format: ADME, organism-based; parameters: dose 1 mg/kg, route intravenous; settings: in vivo
[8] = Half life in mouse at 1 mg/kg, iv; format: ADME, organism-based; parameters: dose 1 mg/kg, route intravenous; settings: in vivo
[9] = biological target: T2, Baculoviral IAP repeat-containing protein 2; assay: Inhibition of His-thrombin-TEV-tagged cIAP1 BIR2 domain (174 to 256) (unknown origin) after 1 hr by TR-FRET assay
[10] = Oral bioavailability in mouse at 10 mg/kg; format: ADME, organism-based; settings: in vivo
[11] = biological target: T3, Cytochrome P450 3A4 (Homo sapiens, UniProt P08684); assay: Inhibition of CYP3A4 (unknown origin); format: ADME
T3 sequence (P08684 whole entry): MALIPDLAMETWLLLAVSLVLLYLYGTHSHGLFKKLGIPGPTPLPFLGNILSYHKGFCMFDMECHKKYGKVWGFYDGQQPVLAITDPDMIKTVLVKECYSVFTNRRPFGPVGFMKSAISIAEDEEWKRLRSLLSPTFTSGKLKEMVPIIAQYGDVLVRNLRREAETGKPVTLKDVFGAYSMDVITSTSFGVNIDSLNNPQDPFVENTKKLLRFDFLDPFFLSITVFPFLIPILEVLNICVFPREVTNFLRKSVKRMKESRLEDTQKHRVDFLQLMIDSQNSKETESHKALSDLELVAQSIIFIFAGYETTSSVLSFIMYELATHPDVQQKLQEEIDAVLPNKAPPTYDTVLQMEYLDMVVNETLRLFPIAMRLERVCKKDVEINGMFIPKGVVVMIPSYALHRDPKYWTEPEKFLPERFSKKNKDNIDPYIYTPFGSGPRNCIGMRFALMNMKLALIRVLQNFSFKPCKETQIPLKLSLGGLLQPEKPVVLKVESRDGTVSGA

[12] = Volume of distribution at steady state in mouse at 1 mg/kg, iv; format: ADME, organism-based; parameters: dose 1 mg/kg, route intravenous; settings: in vivo, read-out: Vdss
[13] = AUC in mouse at 10 mg/kg, po; format: ADME, organism-based; parameters: dose 10 mg/kg, route oral; settings: plasma
[14] = biological target: T3, Cytochrome P450 3A4; assay: Time dependent inhibition of CYP3A4 (unknown origin); format: ADME
[15] = Cmax in mouse at 10 mg/kg, po; format: ADME, organism-based; parameters: dose 10 mg/kg, route oral; settings: in vivo
[16] = Cmax in mouse at 1 mg/kg, iv; format: ADME, organism-based; parameters: dose 1 mg/kg, route intravenous; settings: in vivo
[17] = Half life in mouse at 10 mg/kg, po; format: ADME, organism-based; parameters: dose 10 mg/kg, route oral; settings: in vivo
[18] = AUC in mouse at 1 mg/kg, iv; format: ADME, organism-based; parameters: dose 1 mg/kg, route intravenous; settings: plasma
[19] = biological target: T3, Cytochrome P450 3A4; assay: Induction of CYP3A4 (unknown origin); format: ADME
[20] = system: Hepatocyte; assay: Drug metabolism in human hepatocytes assessed as demethylation of methoxy group of naphthalene; format: ADME, cell-based
[21] = system: Hepatocyte; assay: Drug metabolism in rat hepatocytes assessed as demethylation of N-methyl-L-alanine; format: ADME, cell-based
[22] = system: Hepatocyte; assay: Drug metabolism in rat hepatocytes assessed as demethylation of methoxy group of naphthalene; format: ADME, cell-based
[23] = system: Hepatocyte; assay: Drug metabolism in human hepatocytes assessed as demethylation of N-methyl-L-alanine; format: ADME, cell-based
[24] = biological target: T1, E3 ubiquitin-protein ligase XIAP; remark: listed apart in the source

T1 sequence (P98170 whole entry): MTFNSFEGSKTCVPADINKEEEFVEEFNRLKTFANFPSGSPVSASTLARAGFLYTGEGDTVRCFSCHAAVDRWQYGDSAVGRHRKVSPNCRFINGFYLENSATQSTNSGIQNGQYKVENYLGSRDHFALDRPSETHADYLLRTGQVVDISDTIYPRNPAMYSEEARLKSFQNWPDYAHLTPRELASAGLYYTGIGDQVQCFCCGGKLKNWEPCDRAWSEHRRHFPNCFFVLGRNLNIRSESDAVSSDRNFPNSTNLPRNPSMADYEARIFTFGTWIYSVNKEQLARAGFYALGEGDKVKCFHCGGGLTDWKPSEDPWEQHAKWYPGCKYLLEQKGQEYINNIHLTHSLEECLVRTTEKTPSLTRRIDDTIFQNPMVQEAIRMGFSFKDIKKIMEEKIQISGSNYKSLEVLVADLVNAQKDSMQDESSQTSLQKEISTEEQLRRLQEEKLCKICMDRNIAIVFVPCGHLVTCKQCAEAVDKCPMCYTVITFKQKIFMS

CN[C@@H](C)C(=O)N[C@H]1CCc2ccccc2N(Cc2ccc(C)c3ccccc23)C1=O
IC50 [1]: > 54 µM

CN[C@@H](C)C(=O)N[C@@H]1C(=O)N(Cc2nn(-c3ccccc3C#N)c3ccccc23)c2ccccc2OC12CCOCC2
IC50 [1]: > 54.8 µM

COc1ccc2cc(Br)ccc2c1CN1C(=O)[C@@H](NC(=O)[C@@H](N)[C@H](C)O)CCc2ccccc21
IC50 [1]: > 54 µM

CN[C@H](C)C(=O)N[C@H]1CCc2ccccc2N(Cc2c(OC)ccc3cc(Br)ccc23)C1=O
IC50 [1]: > 54 µM

CN[C@@H](C)C(=O)N[C@H]1CCc2ccccc2N(Cc2c(OC)ccc3ccccc23)C1=O
IC50 [1]: > 54 µM

CN[C@@H](C)C(=O)N[C@H]1CCc2ccccc2N(Cc2ccc3ccccc3c2)C1=O
IC50 [1]: > 54 µM

CN[C@@H](C)C(=O)N[C@H]1CCc2ccccc2N(Cc2c(OC)ccc3cc(Br)ccc23)C1=O.Cl
Stability [2]: Unstable | clearance [3]: 116 mL/min/kg | Stability [4]: Unstable | remaining at 4 h, 1 µM [5]: 40% | IC50 [1]: > 54 µM

CCN[C@@H](C)C(=O)N[C@H]1CCc2ccccc2N(Cc2c(OC)ccc3cc(Br)ccc23)C1=O
IC50 [1]: > 54 µM

CN[C@@H](C)C(=O)N[C@H]1CCc2ccccc2N(CCc2ccccc2)C1=O
IC50 [1]: > 54 µM

CN[C@@H](C)C(=O)N[C@H]1CCc2ccccc2N(Cc2ccccc2)C1=O
IC50 [1]: > 54 µM

CN[C@@H](C)C(=O)N[C@@H]1C(=O)N(Cc2c(C#N)n(-c3ccccc3C#N)c3ccccc23)c2ccccc2OC12CCOCC2.Cl
IC50 [6]: > 55 µM | clearance [7]: 33 mL/min/kg | half-life [8]: 6.9 h | IC50 [9]: 0.271 µM | bioavailability [10]: 53% | inhibition (INH) [11]: Active | Vd [12]: 8.6 L/kg | AUC [13]: 2860 ng·h/mL | inhibition (INH) [14]: Active | Cmax [15]: 647 ng/mL | Cmax [16]: 495 ng/mL | half-life [17]: 5 h | AUC [18]: 543 ng·h/mL | Activity [19]: Active

CN[C@@H](C)C(=O)N[C@H]1CCc2ccccc2N(Cc2c(C)ccc3ccccc23)C1=O
IC50 [1]: > 54 µM

CN[C@@H](C)C(=O)N[C@H]1CCc2ccccc2N(Cc2cccc3ccccc23)C1=O
IC50 [1]: > 54 µM

CN[C@@H](C)C(=O)N[C@H]1COc2ccccc2N(Cc2c(OC)ccc3cc(Br)ccc23)C1=O
remaining at 4 h, 1 µM [5]: 7%

CN[C@@H](C)C(=O)N[C@@H]1C(=O)N(Cc2c(OC)ccc3cc(Br)ccc23)c2ccccc2OC12CCOCC2.Cl
Drug metabolism [20]: Active | Drug metabolism [21]: Active | Drug metabolism [22]: Active | remaining at 4 h, 1 µM [5]: 88% | Drug metabolism [23]: Active

C[C@H](N)C(=O)N[C@@H]1C(=O)N(C)CCc2ccccc21
IC50 [1]: > 54.2 µM | IC50 [24]: 14.4 µM
